EC50 data for 57 molecules are collected here from PubChem BioAssay AID489032 (Sanford-Burnham Center for Chemical Genomics, 2010).

The source made the active and inactive calls. The rule behind the calls is not given here.

The subject of the experiment is UPR adaptive arm reporter cells, luciferase luminescence. As to the kind of experiment: activators of adaptive UPR signalling, dose response, cell-based, luciferase luminescence (AID 489032).
Usually EC50 stands for the concentration needed to bring the measured effect to its halfway point. Regarding `Cc1cc(NC(=O)/C(C#N)=C/c2ccc(-c3ccc(SC(F)F)cc3)o2)n(-c2ccccc2)n1`, the EC50 is > 80 µM (inactive).
With `COc1cc(SC#N)ccc1N=Cc1c(C)[nH]n(-c2ccc(Cl)cc2)c1=O` the figure was > 80 µM (inactive).
With `NC1=NC[C@@H](CC2CCCCC2)N1CCc1cc(C(F)(F)F)cc(C(F)(F)F)c1`, the EC50 is > 80 µM (inactive).
On to `N#Cc1cc2c(nc1SCC(=O)Nc1sc3c(c1C#N)CCC3)CCCC2`, for which the EC50 was > 80 µM (inactive).
In the case of `O=C(Nc1nc(-c2ccc(F)c(F)c2)cs1)Nc1ccc(F)cc1F`, the EC50 was 37.2 µM (inactive).
Next, `O=C(NCc1ccccc1Cl)c1cccc2c1C(=O)c1ccc(-c3ccc(OC(F)(F)F)cc3)cc1S2(=O)=O`: > 80 µM (inactive); `CC(C)=CCCC1(C)C=Cc2c(c(C)cc3c2[nH]c2cc(O)ccc23)O1` (configuration not stated): > 80 µM (inactive); `CCc1cc2c(C)ccc(C)c2nc1SCC(=O)Nc1c[nH]c(=O)[nH]c1=O`: > 80 µM (inactive).
Regarding `Cc1ccc(Nc2nc3ccc(Cl)cc3n3cnnc23)cc1F`, the EC50 is > 80 µM (inactive).
Next, `Oc1ccc(-c2nc3ccc4ccccc4c3c3c2CCC3)cc1O`: 28.4 µM (inactive).
With `CC(C)c1ccc(/C=C/C(=O)Nc2nc3ccc([N+](=O)[O-])cc3s2)cc1`, the EC50 was > 80 µM (inactive).
On to `CC1CCc2cc(F)ccc2N1C(=O)CSc1nnc2c(n1)[nH]c1ccc(F)cc12` (configuration not stated), for which the EC50 is > 80 µM (inactive).
Consider `CCc1cc2c(=O)c(-c3cnn(-c4ccccc4)c3)c(C)oc2cc1OCC(=O)Nc1cccc(C)c1`, for which the EC50 was > 80 µM (inactive).
Regarding `C=CCOc1ccc(/C=N/N2C(=O)C(CC(=O)Nc3ccc(F)cc3F)SC2=NC)cc1` (configuration not stated), the EC50 was > 80 µM (inactive).
With `CCOC(=O)c1cc(NC(=O)c2ccc(Cl)cc2)c(=O)n2c1oc1ccc(Cl)cc12` the figure was > 80 µM (inactive); with `CCOC(=O)c1nnc(-c2ccc(C)cc2)nc1Sc1cccc(Cl)c1`, > 80 µM (inactive).
With `COc1ccc(OC)c(NC(=O)c2oc3ccccc3c2NC(=O)C2CC2)c1` the figure was > 80 µM (inactive); with `O=C(NCCc1ccc(O)c(O)c1)C1COc2ccccc2O1` (configuration not stated), 66.1 µM (inactive); with `CCC/C(=N/Nc1ccc(Cl)cc1)c1cnnc(-c2ccccc2)n1`, > 80 µM (inactive).
With `Cn1nnnc1Sc1ncnc2scc(-c3ccc(Cl)cc3)c12` the figure was > 80 µM (inactive); with `Cc1cc(C)nc(SCc2ccc(C(=O)N/N=C/c3cccc(O)c3O)cc2)n1`, > 80 µM (inactive).
`O=C(N/N=C/c1ccc(Cl)cc1)c1sccc1OCc1ccc(F)cc1`: the EC50 was 49.3 µM (inactive).
As to `CCn1cc(C(=O)NC(=S)Nc2sc3c(c2C(=O)OC)CCCCCC3)cn1`, the EC50 is > 80 µM (inactive).
For the molecule `CCCCCc1nc2c(c(=O)c3ccccc3n2C)c(=O)n1C1CCCCCC1`, the EC50 was > 80 µM (inactive).
`CCOc1cccc(C(=O)Nc2cccc(-c3nnc(-c4ccc(C)cc4)o3)c2)c1`: the EC50 is > 80 µM (inactive).
Take `COc1ccc(-c2csc(C3=C(O)CN(Cc4ccc(Cl)cc4)C3=N)n2)cc1OC`: the EC50 is > 80 µM (inactive).
`CC1(C)CC[C@@]23CC[C@]4(C)[C@@](OC2=O)(C3C1)[C@H]1O[C@H]1C1[C@@]2(C)CC[C@H](O)C(C)(C)C2CC[C@]14C` (some centres not stated): the EC50 is > 80 µM (inactive).
Consider `O=Cc1cc2ccccc2nc1SCc1ccc(Cl)c(Cl)c1`, for which the EC50 is 52.3 µM (inactive).
As for `CCOC(=O)c1c(NC(=O)CNC2CCCc3ccccc32)sc(C(N)=O)c1C` (configuration not stated), the EC50 was > 80 µM (inactive).
On to `COc1cccc(-c2c(-c3cc(OC)cc(OC)c3)n(C)c3ccc(-c4cnc(N5CCOCC5)nc4)cc23)c1`, for which the EC50 is 54.9 µM (inactive).
As to `Cn1c(-c2ccccc2)c(/C=N/NC(=O)c2ccc(O)cc2)c2ccccc21`, the EC50 is > 80 µM (inactive).
Next, `COc1ccc(-c2nnc(SCC(=O)Nc3sc4c(c3C#N)CCCC4)n2-c2ccccc2)cc1`: > 80 µM (inactive).
For `CC(C)Cn1c2c(c(=O)[nH]c1=O)C(C(F)(F)F)(C(F)(F)F)N=C(CCC1CCCCC1)N2`, the EC50 is > 80 µM (inactive).
Turning to `O=c1[nH]c(O)c(/C=C2/C=CC(c3cc(Cl)ccc3Cl)=N2)c(=O)[nH]1`, the EC50 was 9.68 µM.
With `O=C(Nc1ccc(-c2nc3cc(NC(=O)c4cccs4)ccc3o2)cc1)c1cccs1`, the 50% effective concentration (EC50) was 4.31 µM.
With `CCOc1ccc(Cn2c3ccc(OC)cc3c3nc4ccccc4nc32)cc1OC`, the EC50 was > 80 µM (inactive).
As for `CCOc1ccc(NC(=S)NC(=O)/C=C/c2ccc(OC)c(OC)c2)c([N+](=O)[O-])c1`, the EC50 was > 80 µM (inactive).
Consider `COc1cccc(C(=O)Oc2cc3c4c(c2)C(C)=CC(C)(C)N4C(=O)C3=O)c1`, for which the EC50 is 19.6 µM.
For `CN(C)CCOc1ccc(-c2c(-c3ccccc3)sc3ccccc23)cc1`, the EC50 is > 80 µM (inactive).
On to `COc1ccc(-c2nn(-c3ccccc3)cc2/C=C/C(=O)OCC(=O)Nc2cccc(C#N)c2)cc1`, for which the EC50 was 11.9 µM.
In the case of `CN(C)CCCN(C(=O)c1cc(-c2cccs2)nc2ccccc12)c1nc2ccc(F)cc2s1`, the EC50 is > 80 µM (inactive).
Regarding `Cn1c(Cl)cnc1C1CC(=O)c2cc(Cl)ccc2O1` (configuration not stated), the 50% effective concentration (EC50) was 18.9 µM.
As for `COc1cc2c(cc1NC(=S)NC(=O)/C=C/c1ccco1)oc1ccccc12`, the EC50 was 21.3 µM (inactive).
On to `O=C(Nc1ccc([N+](=O)[O-])cc1)C(Cc1ccccc1)N1C(=O)c2cccc3cccc(c23)C1=O` (configuration not stated), for which the EC50 was 27 µM (inactive).
As for `NS(=O)(=O)c1ccc(N/N=C/c2cn(-c3ccccc3)nc2-c2ccccc2)c([N+](=O)[O-])c1`, the EC50 is > 80 µM (inactive).
Consider `CCCCNC(=O)c1ccc(Cn2c(=S)[nH]c3c([nH]c4ccc(OC)cc43)c2=O)cc1`, for which the EC50 is > 80 µM (inactive).
As to `CCOc1ccc(-n2c(C)cc(C(=O)CCl)c2C)cc1`, the EC50 was 8.94 µM.
As to `COc1cc(-c2noc(C)c2/C=C/c2ccc(OC(C)=O)cc2)cc(OC)c1OC`, the EC50 was > 80 µM (inactive).
Turning to `CCOc1cc(/C=N/N=C(/N)c2nonc2N)cc(Br)c1OCc1ccc(Cl)cc1`, the EC50 is > 80 µM (inactive).
Consider `Cc1ccc2nc(N(CCCN(C)C)C(=O)c3ccc(S(=O)(=O)N4CCc5ccccc5C4)cc3)sc2c1`, for which the EC50 is > 80 µM (inactive).
With `Cc1cnc(NC(=O)c2cc3c(C)nn(Cc4ccccc4Cl)c3s2)s1`, the EC50 is > 80 µM (inactive).
Take `CCOC(=O)c1c(NC(=O)c2cc(C)on2)c2cc([N+](=O)[O-])ccc2n1C`: the EC50 was > 80 µM (inactive).
Take `COc1ccc(Cc2nnc(N/N=C/c3ccc(N(C)C)cc3)[nH]c2=O)cc1OC`: the EC50 is 25.5 µM (inactive).
As to `COc1ccc(/C=N/Nc2nnc(-c3ccccc3)c(=O)[nH]2)cc1`, the EC50 was 19.8 µM.
As for `CN(c1ccccc1)S(=O)(=O)c1cccc(C(=O)NCCc2ccc(O)c(O)c2)c1`, the EC50 was 32.2 µM (inactive).
Regarding `COc1cc(/C=N/Nc2nc(Nc3ccccc3)nc(-n3nc(C)cc3C)n2)cc(OC)c1OC`, the EC50 is > 80 µM (inactive).
With `COc1ccc2cc(C)c3nnc(SCC(=O)Nc4nc(-c5ccc(F)cc5)cs4)n3c2c1`, the EC50 is 23.7 µM (inactive).
